Assay results reported in patent US12091424B2, “Rapamycin derivatives” (NOVARTIS AG, priority 2017, dated 2024).

Tests used:
[1] = tested on: mTORC1 pathway; test: Inhibition of mTORC1 pathway in rat liver (p-S6/t-S6 immunoblot); format: in vivo
Description: Protein extraction and immunoblotting. For protein extraction, snap frozen tissues were lysed in MSD Lysis Buffer (MSD, Rockville, Maryland), supplemented with complete EDTA free protease inhibitor and PhosSTOP phosphatase inhibitor tablets (Roche, Manheim, Germany), and centrifuged at 13,000 g for 20 min at 4° C. The resultant supernatant was used for immunoblotting. Protein was quantified with BCA protein assay (Thermo Scientific, MA). Samples were resolved on 4-20% Criterion™ TGX™ Precast Midi Protein gels (Bio-Rad, CA) and transferred onto nitrocellulose membranes (Bio-Rad, CA) using a Trans Turbo Blot system (Bio-Rad, CA). Immunoblotting was performed with antibodies to p-S6 and t-S6 from Cell Signaling Technologies (all 1:1000 in TBS-T with 5% BSA). The ‘p’ and ‘t’ prefixes signify ‘phosphorylated’ and ‘total’ forms respectively. HRP-conjugated secondary antibodies against rabbit (#7074) were from Cell Signaling Technologies, MA. […] Resultant digital images were converted into a TIFF format and quantified using ImageJ software.
The ability of Example 2 to inhibit mTORC1 pathway in vivo was determined in rats aged 4 months (FIG. 5A-5D).

[2] = molecular target: FKBP51 (Homo sapiens (Human), UniProt Q13451); test: SPR assay, binding affinity to FKBP51; settings: single-cycle kinetics
Sequence of FKBP51 (Q13451 whole entry, the tested form may be a part): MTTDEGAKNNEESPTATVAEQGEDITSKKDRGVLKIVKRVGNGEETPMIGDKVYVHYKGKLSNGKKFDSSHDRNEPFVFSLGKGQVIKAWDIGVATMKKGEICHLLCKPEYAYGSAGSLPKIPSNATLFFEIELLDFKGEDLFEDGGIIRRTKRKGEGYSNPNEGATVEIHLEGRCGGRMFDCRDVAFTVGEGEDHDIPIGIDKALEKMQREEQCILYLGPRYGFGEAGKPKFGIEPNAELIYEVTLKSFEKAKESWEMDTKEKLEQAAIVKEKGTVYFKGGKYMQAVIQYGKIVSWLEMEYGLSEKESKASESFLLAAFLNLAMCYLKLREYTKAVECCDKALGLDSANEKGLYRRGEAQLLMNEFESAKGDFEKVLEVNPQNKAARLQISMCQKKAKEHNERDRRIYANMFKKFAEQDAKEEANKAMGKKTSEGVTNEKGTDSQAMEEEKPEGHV
Description: SPR Assay to Determine Binding Affinity to FK506-Binding Proteins (FKBP). N-terminal avi-his6 tagged FKBP fusions to FKBP12, FKBP51 and FKBP52 were expressed in E. coli and purified using standard chromatography. Each protein was subsequently immobilized on a streptavidin chip in a Biacore 8K SPR instrument (GE Healthcare). Using single-cycle kinetics, compound titrations were flowed at 45 uL/min over each surface using 2-minute association and 30-minute dissociation phases in a buffer containing 50 mM Tris pH 7.5/150 mM NaCl/0.01% Tween 20/1 mM DTT/2% DMSO. The data was fit using low molecular weight (LMW) single-cycle kinetics. The equilibrium dissociation constants (KD) are reported.

[3] = in vivo; settings: male, Sprague Dawley, rat, whole blood
[4] = tested on: S6K1 (Thr389) in FKBP12 knock-down 293T cells; test: S6K1 (Thr389) phosphorylation ELISA in FKBP12 knock-down 293T cells; format: cell-based; settings: 2 hours treatment
[5] = tested on: mTORC1 signaling; test: MEF TSC1−/− cell-based assay for rapalog potency (pS6); set-up: species or system Mouse; settings: Mus musculus, MEF TSC1−/− cells; average from multiple assays
Description: Cell-based assay for rapalog potency determination. Rapalog potency was determined using MEF TSC1−/− cell based assay. MEF TSC1−/− cells are Mouse Embryonic Fibroblasts deficient in Tuberous sclerosis protein—TSC1, which negatively regulates mTORC1 signaling and thus display constitutive mTORC1 activation, resulting in phosphorylation (activation) of downstream molecules. This cell-based assay is used to measure inhibition (de-phosphorylation) of S6 and 4EBP1 by rapalogs or other mTOR inhibitors.
MEF TSC1−/− cells were plated on Poly-D-lysine coated 384 well Griener clear bottom plates and incubated overnight at 37° C., 5% CO2. […] Nuclei were visualized with Hoechst (ThermoFisher Scientific #H3570) staining. Cells were imaged (InCell 600) using respective fluorescence channels and the potency of mTOR inhibitors was defined by pS6 IC50 (nM).
In vitro potency of mTOR inhibitors was defined by pS6 IC50 (nM) in MEF TSC1−/− cells.

[6] = Comparative blood and brain concentrations in rats after oral dosing; format: in vivo; settings: rat; p.o. 3, 10 and 30 mg/kg; 3 h and 24 h
Description: Concentrations were determined using HPLC/Mass spectrometry. […] Blood and brain tissues were collected at 3 hours (h) and 24 h following treatment to determine concentrations of the compounds.

Kd [2]: > 10 µM | clearance ([3]; iv, 1 mg/kg): 9 mL/min/kg | half-life ([3]; iv, 1 mg/kg): 594 min | bioavailability ([3]; oral, 3 mg/kg): 18% | IC50 [5]: 0.274 nM | blood concentrations compared with RAD001 [6]: higher | brain concentrations compared with RAD001 [6]: higher
Compound: CO[C@@H]1C[C@H](C[C@@H](C)[C@@H]2CC[C@H](C)/C=C(\C)[C@@H](O)[C@@H](OC)C(=O)[C@H](C)C[C@H](C)/C=C/C=C/C=C(\C)[C@H](N3CCCS3(=O)=O)C[C@@H]3CC[C@@H](C)[C@@](O)(O3)C(=O)C(=O)N3CCCC[C@H]3C(=O)O2)CC[C@H]1O [Example 2, (R)—C16-(1,1-dioxidoisothiazolidin-2-yl)-C32-deoxo-rapamycin]
S6 inactivation in rat livers ([1]; 24 h following dosing with 10 (trend p=0.06) and 30 mg/kg): remained inactivated | de-phosphorylation (inactivation) of S6 in rat livers ([1]; single dose 3, 10 and 30 mg/kg, three hours following dosing, vs vehicle): significant de-phosphorylation | maximum inhibition of S6K1(Thr389) [4]: 40%
